“Also recorded” adds a separate entry of the source.
Tests used:
anaesthetized rat [1] = experiment: LPS-induced hyporeactivity to exogenous norepinephrine in the anaesthetized rat; type: in vivo, Male Sprague Dawley rats
Procedure: (§1) Anaesthetized Rat Model. Male Sprague Dawley rats (250-300 g) were anaesthetized with inactin (100 mg/Kg intraperitoneally). The trachea was cannulated to facilitate respiration and body temperature was maintained at 37° C. by means of a heating pad. The left femoral vein was cannulated for administration of drugs. The left femoral artery was cannulated and connected to a pressure transducer to allow for the monitoring of blood pressure. Lipopolysaccharide from E. coli (LPS; 4 mg/Kg, serotype 0111:B4) was administered as a bolus intravenous injection at a volume of 0.3 ml. Control animals received saline at the same volume and by the same route. In experiments involving blood samples, such blood samples were withdrawn from the arterial cannula.
Injection of E. coli lipopolysaccharide (LPS) to rats leads to the development of hyporeactivity to exogeneously administered norepinephrine which typically occurs in the first two hours. Male Sprague Dawley rats (250-300 g, number in group) were anaesthetized and prepared according to the methods of Example 1. Increasing dosages of norepinephrine (0.1, 0.5 and 1 mg/Kg) were given as intravenous bolus injections. Animals in a control group received saline at the same volume and by the same route. The left femoral artery was cannulated and connected to a pressure transducer to allow for the monitoring of blood pressure during the experiment. The change in the blood pressure of the animals was compared to the blood pressure of animals in the control group. […] Pressor responses to norepinephrine in rats not treated with LPS were unaffected by the SOD mimetic M40403 (FIG. 2; n=6).
Injection of E. coli lipopolysaccharide (LPS) to rats leads to the development of hyporeactivity to exogeneously administered norepinephrine which typically occurs in the first two hours. Male Sprague Dawley rats (250-300 g, number in group) were anaesthetised and prepared according to the methods of Example 1. Increasing dosages of norepinephrine (0.1, 0.5 and 1 mg/Kg) were given as intravenous bolus injections. Animals in a control group received saline at the same volume and by the same route. The left femoral artery was cannulated and connected to a pressure transducer to allow for the monitoring of blood pressure during the experiment. The change in the blood pressure of the animals was compared to the blood pressure of animals in the control group.

anaesthetized rat [2] = experiment: Pressor effect of norepinephrine incubates on MAP in the anaesthetized rat; type: in vivo, Male Sprague Dawley rats; settings: n=6
Procedure: as §1
Male Sprague Dawley rats (250-300 g, 6 rats per group) were anaesthetized and prepared according to the methods of Example 1. 0.5 mg/Kg of norepinephrine was administered as an intravenous (i.v) bolus injection through the left femoral vein. Animals in a control group received saline at the same volume and by the same route. The left femoral artery was cannulated and connected to a pressure transducer to allow for the monitoring of blood pressure during the experiment. The change in the blood pressure of the animals was compared to the blood pressure of animals in the control group. The results of the tests can be found in FIG. 1. Norepinephrine raised the MAP of the rats by 34±3.7 mmHg (FIG. 1b; n=6). […] When SOD mimetic M40403 was included with HX/XO in the incubation mixture, the vasopressor actions of were protected as shown by its ability to restore MAP back to near control values (38±3.6 mmHg) (FIG. 1b; n=6).

[3] = tested on: O2− generated by hypoxanthine/xanthine oxidase (HX/XO); experiment: Deactivation of catecholamines by hypoxanthine/xanthine oxidase superoxide generating system, HPLC detection; type: biochemical; settings: HX 2 mM / XO 1 U/ml, n=6; for chemical detection of the catecholamines by HPLC after exposure to HX/XO: no SOD mimetic
Procedure: Catecholamine measurements. Catecholamines in test tube samples or plasma samples were identified and quantified by high pressure liquid chromatography with electrochemical detection (HPLC-EC). The system consists of a Varian model 2510 solvent delivery system and a model 9090 autosampler (Varian, Walnut Creek, Calif.) coupled to a C18 column and an ESA Coulochem II detector. Separations were performed isocratically using a filtered and degassed mobile phase consisting of 10% methanol, 0.1 M sodium phosphate, 0.2 mM sodium octyl sulfate and 0.1 mM EDTA, adjusted to pH 2.8 with phosphoric acid. The HPLC system is coupled to a PS-90 computer with which chromatograms were recorded and analyzed with Varian Star workstation software.
Hypoxanthine (HX;2 mM)/xanthine oxidase (XO; 1 U/ml) results in the generation of O2^− in the ratio of 2 molecules of O2^− to every one molecule of HX used.

anaesthetized rat [4] = experiment: LPS-induced hypotension and mortality in the anaesthetized rat; type: in vivo, Male Sprague Dawley rats
Procedure: as §1
Intravenous injection of LPS (4 mg/Kg) in rats led to a profound fall in blood pressure associated with a high mortality rate (99±5% mortality at 9 hours, n=10, FIG. 3). Furthermore, the plasma levels of norepinephrine as well as the adrenochromes increased after LPS treatment (FIGS. 4a,b,c; n=10). Levels of the catecholamines and of the adrenochromes could not be evaluated at the 9 h timepoint (survival rate at this point was 1%, n=10).
(FIG. 3; n=10). Inhibition of hypotension by M40403 was associated with increased levels of catecholamines (FIGS. 4a and b) and concommittant decrease (FIG. 4c; n=10) in plasma levels of the adrenochromes, the reaction products of O2^− and these catecholamines. In addition, when the administration of M40403 was postponed until 5 hours post LPS in this model the severe hypotensive phase of this condition was reversed (FIG. 3; n=10).
When 15 mg/Kg of 5,10,15,20-tetrakis (2,4,6-trimethyl-3,5-disulfonatophenyl)-porphyrinato iron (III) (FeTMPS) was administered (i.v bolus injection 1 hour after LPS), the development of hypotension was prevented.

[5] = Plasma catecholamine and adrenochrome concentrations after LPS; type: in vivo, Male Sprague Dawley rats; settings: M40403 0.25 mg/Kg/h given at 1 h post LPS 4 mg/Kg i.v.; n=10
Procedure: as §1, with “In experiments involving blood samples, such blood samples were withdrawn from the arterial cannula.” left out
Catecholamine measurements. Catecholamines in test tube samples or plasma samples were identified and quantified by high pressure liquid chromatography with electrochemical detection (HPLC-EC). […] The HPLC system is coupled to a PS-90 computer with which chromatograms were recorded and analyzed with Varian Star workstation software.
Adrenochrome measurements. The detection and quantification of the sum of the noradrenochrome and adrenochrome was carried out using an HPLC method utilising a Vydac C18 Pharmaceutical 4.6×250 mm column and with a 5% acetonitrile+95% SDS (10 mM) mobile phase (5 min elution), then 40% acetonitrile with 60% SDS plus 0.1% TFA (5 min elution) mobile phase, all eluted at […]. […]

[Cl-].[Cl-].[Mn+2].c1cc2nc(c1)CN[C@@H]1CCCC[C@H]1NCCN[C@@H]1CCCC[C@H]1NC2 [M40403]
pressor responses to norepinephrine two hours after LPS (anaesthetized rat [1]; M40403 0.25 mg/Kg, 15 min i.v. infusion 1 hour after LPS 4 mg/Kg, norepinephrine 0.1, 0.5 and 1 mg/Kg): restored
hyporeactivity to norepinephrine after LPS (anaesthetized rat [1]; M40403 1 mg/Kg, LPS 4 mg/Kg, norepinephrine 0.1-1 mg/Kg, n=6): reversed
reactivity (pressor responses) to norepinephrine in rats not treated with LPS (anaesthetized rat [1]; saline treated rats, M40403, n=6): unaffected; also recorded: not affected
ability of norepinephrine to increase MAP after incubation with HX/XO (anaesthetized rat [2]; M40403 in the incubate, incubation 5 min, norepinephrine 0.5 mg/Kg bolus i.v.): preserved
increase in MAP by norepinephrine incubated with HX/XO plus M40403 (anaesthetized rat [2]; norepinephrine 0.5 mg/Kg i.v. bolus, M40403 included in HX/XO incubation mixture): 38±3.6 mmHg
reduction of chemical detection (HPLC) of norepinephrine and epinephrine after incubation with HX/XO ([3]; M40403 10^−6 M, incubation 5 min): prevented
fall in MAP (severe hypotensive phase) after LPS (anaesthetized rat [4]; M40403 0.25 mg/Kg administered at 5 h post LPS 4 mg/Kg i.v., n=10): reverses
survival by 9 h (anaesthetized rat [4]; M40403 0.25 mg/Kg/h i.v. infusion 1 hour post LPS 4 mg/Kg, n=10): 99±2%
fall in MAP (development of hypotension) after LPS (anaesthetized rat [4]; M40403 0.25 mg/Kg/h i.v. infusion from 1 h post LPS 4 mg/Kg i.v., n=10): prevents
plasma concentrations of adrenochromes versus LPS alone [5]: decrease; also recorded: significantly lower
plasma concentrations of epinephrine and norepinephrine versus LPS alone [5]: increased; also recorded: significantly higher

CNC[C@H](O)c1ccc(O)c(O)c1 [epinephrine]
chemical detection of the catecholamines by HPLC after exposure to HX/XO [3]: significant decreases

NC[C@H](O)c1ccc(O)c(O)c1 [norepinephrine, reference compound]
increase in MAP by norepinephrine after incubation with HX/XO (anaesthetized rat [2]; norepinephrine 0.5 mg/Kg i.v. bolus, incubated with HX/XO): 17±2.5 mmHg
increase in MAP by norepinephrine (anaesthetized rat [2]; norepinephrine 0.5 mg/Kg i.v. bolus, not incubated): 34±3.7 mmHg
chemical detection of the catecholamines by HPLC after exposure to HX/XO [3]: significant decreases

5,10,15,20-tetrakis (2,4,6-trimethyl-3,5-disulfonatophenyl)-porphyrinato iron (III) [FeTMPS]
hyporeactivity to exogenous norepinephrine after LPS (anaesthetized rat [1]; FeTMPS 15 mg/kg given at 1 h post LPS 4 mg/Kg): prevented; also recorded: reversed
reactivity to norepinephrine in saline treated rats (anaesthetized rat [1]; FeTMPS, saline treated rats, n=6): not significantly affected
fall in MAP after LPS, therapeutic treatment (anaesthetized rat [4]; FeTMPS 10 mg/Kg/h at 1 h post LPS 4 mg/Kg i.v. (FIG. 7)): prevents
fall in MAP after LPS, prophylactic treatment (anaesthetized rat [4]; FeTMPS 10 mg/Kg/h at 1 h post LPS 4 mg/Kg i.v. (FIG. 8)): prevents
development of hypotension after LPS (anaesthetized rat [4]; FeTMPS 15 mg/Kg i.v. bolus injection 1 hour after LPS): prevented

Reference: US20040132706A1, “Composition comprising a catalyst for the dismutation of superoxide and use of the composition for preventing and treating hypotension” (priority 2003, published 2004)
